Measured values from US20030013660A1, “Dioxolane analogs for improved inter-cellular delivery” (Shire BioChem Inc., priority 2000, published 2003).
pIC50: −log10 of the molar value. Read-outs that look alike come from different tables or passages of the source.

How the values were obtained:
Test in all cases: 3H-TdR incorporation at 72 hr (24 hr drug exposure, wash, 48 hr)
SF-268 = type: cell-based, Human; settings: for IC50: Homo sapiens, SF-268, read-out: IC50 in μM (3H-TdR incorporation at 72 hr) SF-268 24 h, SF-268 Human Central Nervous System Tumor, 24 h drug exposure, 72 hr assay
Protocol: (§1) Exposition of 24 hr to drug, wash, incubated for another 48 hr (total of 72 hr assay)
(§2) (3H-Thymidine Incorporation Assay)

H-460 = type: cell-based, Human; settings: Homo sapiens, NCI-H460, read-out: IC50 in μM (3H-TdR incorporation at 72 hr) H-460 24 h, H-460 Human Lung Carcinoma, 72 hr assay
Protocol: as §1, §2

MCF-7 = type: cell-based, Human; settings: Homo sapiens, MCF7, read-out: IC50 in μM (3H-TdR incorporation at 72 hr) MCF-7 24 h, MCF-7 Human Breast Carcinoma, 72 hr assay
Protocol: as §1, §2

CEM/dCK- = type: cell-based; settings: for IC50: Homo sapiens, CCRF-CEM, read-out: IC50 in μM (3H-TdR incorporation at 72 hr) CEM/dCK- 24 h, CCRF-CEM deoxycytidine kinase-deficient, 24 h drug exposure, 72 hr assay; for Factor* (Resistance Factor = Ratio of dCK- on Wild-type CCRF-CEM): ratio of IC50 CEM/dCK- to IC50 CCRF-CEM
Protocol: as §1, §2

CCRF-CEM = type: cell-based; settings: Homo sapiens, CCRF-CEM, read-out: IC50 in μM (3H-TdR incorporation at 72 hr) CCRF-CEM 24 h, CCRF-CEM T-cell Leukemia, 72 hr assay
Protocol: as §1, §2

Row | SMILES | IC50 (SF-268) | IC50 (H-460) | IC50 (MCF-7) | IC50 (CEM/dCK-) | Factor* (Resistance Factor = Ratio of dCK- on Wild-type CCRF-CEM) (CEM/dCK-) | IC50 (CCRF-CEM) | pIC50 (SF-268)
1 | Nc1ccn([C@@H]2CO[C@H](COC3(c4ccccc4)OC4OC(COC(=O)c5ccccc5)C(OC(=O)c5ccccc5)C(OC(=O)c5ccccc5)C4O3)O2)c(=O)n1 (stereo partly drawn) [Compound 184, 3,4,6-TRI-O-BENZOYL- 1,2-O-(1-(4-AMINO-2- OXO-2H-PYRIMIDIN-1-YL)- [1,3]DIOXOLAN-2- YLMETHYLOXY)-BENZYL)- □^˜D-GLUCOPYRANOSe] | 1.1 µM | 0.94 µM | 0.92 µM | 40 µM | 49 | 0.81 µM | 
2 | CCOC(=O)/C=C/OC[C@H]1OC[C@@H](n2ccc(N)nc2=O)O1 [Compound 201, 3-[4-(4-AMINO-2-OXO-2H- PYRIMIDIN-1-YL)- [1,3]DIOXOLAN-2-YL METHOXY]-ACRYLIC ACID ETHYL ESTER] | 7.3 µM | 17 µM | 18 µM | > 100 µM | >7 | 14 µM | 
3 | C[C@H]1CC[C@@](C)(C(=O)Nc2ccn([C@@H]3CO[C@H](CO)O3)c(=O)n2)C1(C)C [Compound 235, 1,2,2,3-TETRAMETHYL- CYCLOPENTANECARBOXYLIC ACID [1-(2- HYDROXYMETHYL- [1,3]DIOXOLAN-4-YL)-2- OXO-1,2-DIHYDRO- PYRIMIDIN-4-YL]-AMIDE] | 0.38 µM | 1.6 µM | 1.1 µM | 61 µM | 51 | 1.2 µM | 
4 | COC(OC)(OC)OC[C@H]1OC[C@@H](n2ccc(N)nc2=O)O1 [Compound 177, 4-AMINO-1-(2- TRIMETHOXYMETHOXYMETHYL -[1,3]DIOXOLAN-4-YL)- 1H-PYRIMIDIN-2-ONE] | 0.92 µM | 0.19 µM | 0.22 µM | > 100 µM | >1052 | 0.095 µM | 
5 | C=CCOC[C@H]1OC[C@@H](n2ccc(N)nc2=O)O1 [Compound 179, (S,S)-1-(2′- ALLYLOXYMETHYL- [1,3]DIOXOLAN-4′-YL)-4- AMINO-1H-PYRIMIDIN-2- ONE] | 0.56 µM | 1.7 µM | 2.8 µM | > 100 µM | >42 | 2.4 µM | 
6 | CC(C)(CCCCCCc1ccccc1)C(=O)Nc1ccn([C@@H]2CO[C@H](CO)O2)c(=O)n1 [Compound 227, 2,2-DIMETHYL-8-PHENYL- OCTANOIC ACID [1-(2- HYDROXYMETHYL- [1,3]DIOXOLAN-4-YL)-2- OXO-1,2-DIHYDRO- PYRIMIDIN-4-YL]-AMIDE] | 3 µM | 0.84 µM | 0.012 µM | 22 µM | 512 | 0.043 µM | 
7 | CC(C)C(C(=O)Nc1ccn([C@@H]2CO[C@H](CO)O2)c(=O)n1)c1ccccc1 (some centres unmarked) [Compound 249, #N!-[1-(2- HYDROXYMETHYL- [1,3]DIOXOLAN-4-YL)-2- OXO-1,2-DIHYDRO- PYRIMIDIN-4-YL]-3- METHYL-2-PHENYL- BUTYRAMIDE] | 8.4 µM | 8.6 µM | 0.78 µM | > 100 µM | >25 | 3.9 µM | 
8 | COc1ccc(C(=O)Nc2ccn([C@@H]3CO[C@H](COC(=O)c4ccc(OC)cc4)O3)c(=O)n2)cc1 [Compound 174, 4-METHOXY-BENZOIC ACID 4-[4-(4-METHOXY- BENZOYLAMINO)-2-OXO-2H- PYRIMIDIN-1-YL]- [1,3]DIOXOLAN-2- YLMETHYL ESTER] | 38 µM | 11 µM | 21 µM | > 100 µM | >11 | 9 µM | 
9 | Cl.Nc1ccn([C@@H]2CO[C@H](COC(=O)OCc3ccc([N+](=O)[O-])cc3)O2)c(=O)n1 [Compound 183, CARBONIC ACID 4-(4- AMINO-2-OXO-2H- PYRIMIDIN-1-YL)- [1,3]DIOXOLAN-2- YLMETHYL ESTER 4-NITRO- BENZYL ESTER HYDROCHLORIDE SALT] | 0.12 µM | 0.037 µM | 0.038 µM | 45 µM | 2,500 | 0.018 µM | 
10 | CC(C)N(/C=N/c1ccn([C@@H]2CO[C@H](CO)O2)c(=O)n1)C(C)C [Compound 230, N′-[1-(2-HYDROXYMETHYL- [1,3]DIOXOLAN-4-YL)-2- OXO-1,2-DIHYDRO- PYRIMIDIN-4-YL]-N,N- DIISOPROPYL-FORMAMIDINE] | 9.5 µM | 1.5 µM | 3.8 µM | > 100 µM | >100 | 1 µM | 
11 | CCOC(OCC)(OCC)OC[C@H]1OC[C@@H](n2ccc(N)nc2=O)O1 [Compound 199, 4-Amino-1-(2-triethoxymethoxymethyl-[1,3]dioxolan-4-yl)-1H-pyrimidin-2-one] | 0.0078 µM | 0.033 µM | 0.21 µM | > 100 µM | >10638 | 0.0094 µM | 
12 | CCCCC[C@H]1CC[C@H](C(=O)OC[C@H]2OC[C@@H](n3ccc(N)nc3=O)O2)CC1 [Compound 240, 4-PENTYL- CYCLOHEXANECARBOXYLIC ACID 4-(4-AMINO-2-OXO- 2H-PYRIMIDIN-1-YL)- [1,3]DIOXOLAN-2-YL METHYL ESTER] | ≤ 0.0001 µM | ≤ 0.0001 µM | ≤ 0.0001 µM | 2.5 µM | ≧25000 | ≤ 0.0001 µM | 
13 | CC(C)(CCCCCCc1ccccc1)C(=O)OC[C@H]1OC[C@@H](n2ccc(N)nc2=O)O1 [Compound 238, 2,2-DIMETHYL-8-PHENYL- OCTANOIC ACID 4-(4- AMINO-2-OXO-2H- PYRIMIDIN-1-YL)- [1,3]DIOXOLAN-2-YL METHYL ESTER] | 0.025 µM | 0.00045 µM | ≤ 0.0001 µM | 59 µM | 23,600 | 0.0025 µM | 
14 | O=c1nc(NS(=O)(=O)c2ccc([N+](=O)[O-])cc2[N+](=O)[O-])ccn1[C@@H]1CO[C@H](CO)O1 [Compound 188, N-[1-(2-HYDROXYMETHYL- [1,3]DIOXOLAN-4-YL)-2- OXO-1,2-DIHYDRO- […]-4-YL]-2,4- DINITRO- BENZENESULFONAMIDE] |  | 0.097 µM | 3 µM | > 100 µM |  | 0.79 µM | 5.62
15 | CCOC[C@H]1OC[C@@H](n2ccc(N)nc2=O)O1 [Compound 178, (S,S)-4-AMINO-1-(2′- ETHOXYMETHYL- [1,3]DIOXOLAN-4′-YL)- 1H-PYRIMIDIN-2-ONE] | 41 µM | 88 µM | 5.8 µM | > 100 µM | >4 | 25 µM | 
16 | Nc1ccn([C@@H]2CO[C@H](COC(=O)N(c3ccccc3)c3ccccc3)O2)c(=O)n1 [Compound 246, DIPHENYL-CARBAMIC ACID 4-(4-AMINO-2-OXO-2H- PYRIMIDIN-1-YL)- [1,3]DIOXOLAN-2-YL METHYL ESTER] | 28 µM | 47 µM | 1.4 µM | > 100 µM | >4 | 25 µM | 
17 | O=C(Nc1ccn([C@@H]2CO[C@H](CO)O2)c(=O)n1)C1(c2ccccc2)CCCCC1 [Compound 225, 1-PHENYL- CYCLOHEXANECARBOXYLIC ACID [1-(2- HYDROXYMETHYL- [1,3]DIOXOLAN-4-YL)-2- OXO-1,2-DIHYDRO- PYRIMIDIN-4-YL]-AMIDE] | 43 µM | 11 µM | 11 µM | > 100 µM | >113 | 0.88 µM | 
